Experimental data reported in the NIST ThermoML archive (doi:10.1016/j.jct.2012.05.012).
Numbers after ± are expanded uncertainties.

Columns and labels:
[1] = for mass density: 101 kPa, Buoyancy - hydrostatic balance; for mass density / surface tension liquid-gas: Liquid; for surface tension liquid-gas: Maximal bubble pressure
[2] = refractive index (Na D-line) (dimensionless); settings: 101 kPa, Liquid, Standard Abbe refractometry

CCCCn1cc[n+](C)c1.NCC(=O)[O-] [1-butyl-3-methylimidazolium glycinate]
Settings | mass density, [1] [kg/m3] | refractive index, [2] | surface tension liquid-gas, [1] [mN/m]
283.15 K | 1120.6 ± 0.5 | – | 44.3 ± 0.4
288.15 K | 1117.4 ± 0.5 | – | 44 ± 0.4
293.15 K | 1114.2 ± 0.5 | 1.5091 ± 0.0004 | 43.8 ± 0.4
298.15 K | 1110.9 ± 0.5 | 1.5085 ± 0.0004 | 43.5 ± 0.4
303.15 K | 1107.8 ± 0.5 | 1.5068 ± 0.0004 | 43.2 ± 0.4
308.15 K | 1104.7 ± 0.5 | 1.5049 ± 0.0004 | 42.9 ± 0.4
313.15 K | 1101.6 ± 0.5 | 1.5038 ± 0.0004 | 42.6 ± 0.4
318.15 K | 1098.6 ± 0.5 | 1.5029 ± 0.0004 | 42.2 ± 0.4
323.15 K | 1095.5 ± 0.5 | 1.5019 ± 0.0004 | 41.8 ± 0.4
328.15 K | 1092.3 ± 0.5 | – | 41.5 ± 0.4

Settings | Glass transition temperature [°C]
[1], Glass, DTA | -81.80 ± 4
